# Measurements as given in US9102688B2, “Sulfonaminoquinoline hepcidin antagonists” (Vifor (International) AG, priority 2011, dated 2015).
# Molecular target: T1, human ferroportin (Homo sapiens, UniProt Q9NP59)
# T1 construct: expressed in transfected cells
# T1 sequence (Q9NP59 1-571): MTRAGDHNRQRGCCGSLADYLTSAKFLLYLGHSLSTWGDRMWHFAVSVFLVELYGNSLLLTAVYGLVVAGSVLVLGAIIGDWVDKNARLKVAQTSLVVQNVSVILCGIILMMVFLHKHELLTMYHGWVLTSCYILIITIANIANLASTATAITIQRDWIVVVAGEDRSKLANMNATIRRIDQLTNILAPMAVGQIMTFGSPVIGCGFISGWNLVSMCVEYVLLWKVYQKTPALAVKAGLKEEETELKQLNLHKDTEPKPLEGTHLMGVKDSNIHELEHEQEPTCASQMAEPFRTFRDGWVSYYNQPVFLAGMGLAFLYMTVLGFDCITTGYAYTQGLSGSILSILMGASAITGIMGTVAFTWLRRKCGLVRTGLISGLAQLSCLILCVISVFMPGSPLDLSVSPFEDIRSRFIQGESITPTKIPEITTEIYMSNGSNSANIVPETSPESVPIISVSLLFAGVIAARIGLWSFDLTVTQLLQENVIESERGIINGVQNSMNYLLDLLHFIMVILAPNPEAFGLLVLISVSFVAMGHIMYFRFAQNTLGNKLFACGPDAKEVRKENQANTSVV
# Assay: ferroportin internalization assay (inhibition of hepcidin-induced internalization of Fpn)
# Assay type: cell-based
# Conditions: MDCK-FPN-HaloTag cells, 100 nM hepcidin, overnight incubation; concentration range from 0.04 to 40 μM
# Outline: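 MDCK cells stably expressing human ferroportin–HaloTag were labelled with TMR ligand, then incubated overnight at 37 °C with compound plus 100 nM hepcidin (final). After fixation and nuclear staining, confocal imaging quantified membrane Fpn fluorescence to measure blocking of hepcidin-induced internalization.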
row,SMILES,IC50
1,"CC(=O)Nc1ccccc1S(=O)(=O)Nc1cccc2cccnc12 [Example 50, N-[2-(Quinolin-8-ylsulfamoyl)-phenyl]-acetamide]",1370 nM
2,"Cc1ccc(NS(=O)(=O)c2ccccc2)c2ncccc12 [Example 90, N-(5-Methyl-quinolin-8-yl)-benzenesulfonamide]",1100 nM
3,"COCCN(C)c1cc2c(c3ncccc13)NS(=O)(=O)c1ccccc1-2 [Example 554, (6,6-Dioxo-5,6-dihydro-6λ*6*-thia-4,5-diaza-chrysen-12-yl)-(2-methoxy-ethyl)-methyl-amine]",550 nM
4,"CN1C(c2ccc(C(F)(F)F)cc2)c2ccc3cccnc3c2NS1(=O)=O (stereo not drawn) [Example 385, 2-Methyl-1-(4-trifluoromethyl-phenyl)-1,4-dihydro-2H-3-thia-2,4,5-triaza-phenanthrene 3,3-dioxide]",1370 nM
5,"O=S1(=O)Nc2c(cc(Cl)c3cccnc23)-c2cc(NC(CO)CO)ccc21 [Example 512, 2-(12-Chloro-6,6-dioxo-5,6-dihydro-6λ*6*-thia-4,5-diaza-chrysen-9-ylamino)-propane-1,3-diol]",13400 nM
6,"CNC(=O)c1ccnc2c(NS(=O)(=O)c3ccccc3)cccc12 [Example 538, 8-Benzenesulfonylamino-quinoline-4-carboxylic acid methylamide]",6240 nM
7,"CN(C)C(=O)c1ccnc2c3c(ccc12)-c1ccccc1S(=O)(=O)N3 [Example 541, 6,6-Dioxo-5,6-dihydro-6λ*6*-thia-4,5-diaza-chrysene-1-carboxylic acid dimethylamide]",21000 nM
8,"CC1c2ccc3cccnc3c2NS(=O)(=O)N1C (stereo not drawn) [Example 413, 1,2-Dimethyl-1,4-dihydro-2H-3-thia-2,4,5-triaza-phenanthrene 3,3-dioxide]",4690 nM
9,"O=S1(=O)Nc2c(cc(NCCN3CCOCC3)c3cccnc23)-c2ccccc21 [Example 547, (6,6-Dioxo-5,6-dihydro-6λ*6*-thia-4,5-diaza-chrysen-12-yl)-(2-morpholin-4-yl-ethyl)-amine]",22000 nM
10,"Cc1ccc(S(=O)(=O)Nc2cccc3cccnc23)nc1 [Example 227, 5-Methyl-pyridine-2-sulfonic acid quinolin-8-ylamide]",380 nM
11,"O=C(Nc1ccccc1S(=O)(=O)Nc1cccc2cccnc12)C(F)(F)F [Example 49, 2,2,2-Trifluoro-N-[2-(quinolin-8-ylsulfamoyl)-phenyl]-acetamide]",307 nM
12,"O=S(=O)(Nc1ccc(C(F)(F)F)c2cccnc12)c1ccccc1 [Example 91, N-(5-Trifluoromethyl-quinolin-8-yl)-benzenesulfonamide]",1050 nM
13,"O=S1(=O)Nc2c(ccc3cccnc23)C(c2ccc(F)cc2)N1 (stereo not drawn) [Example 398, 1-(4-Fluoro-phenyl)-1,4-dihydro-2H-3-thia-2,4,5-triaza-phenanthrene 3,3-dioxide]",2780 nM
14,"CN1C(c2ccc(F)c(CNCCN3CCOCC3)c2)c2ccc3cccnc3c2NS1(=O)=O (stereo not drawn) [Example 426, [2-Fluoro-5-(2-methyl-3,3-dioxo-1,2,3,4-tetrahydro-3λ*6*-thia-2,4,5-triaza-phenanthren-1-yl)-benzyl]-(2-morpholin-4-yl-ethyl)-amine]",8560 nM
15,"Cc1cc2c(cc1F)-c1ccc3cccnc3c1NS2(=O)=O [Example 331, 9-Fluoro-8-methyl-5H-6-thia-4,5-diaza-chrysene 6,6-dioxide]",3240 nM

# The next lines start with the values.
row,IC50,SMILES
1,1810 nM,"COc1ccc(S(=O)(=O)Nc2cccc3cccnc23)c([N+](=O)[O-])c1 [Example 34, 4-Methoxy-2-nitro-N-quinolin-8-yl-benzenesulfonamide]"
2,1200 nM,"O=S(=O)(Nc1cccc2cccnc12)c1cccc(OC(F)(F)F)c1 [Example 38, N-Quinolin-8-yl-3-trifluoromethoxy-benzenesulfonamide]"
3,720 nM,"O=S(=O)(Nc1cccc2cccnc12)c1cccc(C(F)(F)F)c1 [Example 44, N-Quinolin-8-yl-3-trifluoromethyl-benzenesulfonamide]"
4,585 nM,"COc1cc(NS(=O)(=O)c2ccc(C)cc2N)c2ncccc2c1 [Example 80, 2-Amino-N-(6-methoxy-quinolin-8-yl)-4-methyl-benzenesulfonamide]"
5,3570 nM,"Nc1ccc2c(c1)-c1cc(Cl)c3cccnc3c1NS2(=O)=O [Example 519, 12-Chloro-6,6-dioxo-5,6-dihydro-6λ*6*-thia-4,5-diaza-chrysen-9-ylamine]"
6,2060 nM,"O=S(=O)(Nc1cccc2cccnc12)c1cnc2ccccc2c1 [Example 88, Quinoline-3-sulfonic acid quinolin-8-ylamide]"
7,989 nM,"O=S(=O)(Nc1cccc2cccnc12)c1ccc(Cl)cc1Cl [Example 41, 2,4-Dichloro-N-quinolin-8-yl-benzenesulfonamide]"
8,1910 nM,"O=S(=O)(Nc1cccc2cccnc12)c1cnccn1 [Example 230, Pyrazine-2-sulfonic acid quinolin-8-ylamide]"
9,2500 nM,"O=S(=O)(Nc1cccc2cccnc12)c1ccccc1OC(F)(F)F [Example 36, N-Quinolin-8-yl-2-trifluoromethoxy-benzenesulfonamide]"
10,2220 nM,"CCC1c2ccc3cccnc3c2NS(=O)(=O)N1C (stereo not drawn) [Example 412, 1-Ethyl-2-methyl-1,4-dihydro-2H-3-thia-2,4,5-triaza-phenanthrene 3,3-dioxide]"
11,2370 nM,"CC(O)c1cc2c(c3ncccc13)NS(=O)(=O)N(C)C2c1ccc(F)cc1 (stereo not drawn) [Example 403, 1-[1-(4-Fluoro-phenyl)-2-methyl-3,3-dioxo-1,2,3,4-tetrahydro-3λ*6*-thia-2,4,5-triaza-phenanthren-9-yl]-ethanol]"
12,24600 nM,"CC(C)C(=O)Nc1ccccc1S(=O)(=O)Nc1cccc2cccnc12 [Example 48, N-[2-(Quinolin-8-ylsulfamoyl)-phenyl]-isobutyramide]"
